Values quoted from earlier work, collected in article PMC10719327, “A dose-escalation study of HP501, a highly selective URAT1 inhibitor, in male Chinese patients with hyperuricemia” (Scientific Reports, 2023).

Tests used:
[1] = test system: Japanese patients with hyperuricemia; design: method as in PMID 30334639
patients = test system: patients; design: method as in PMID 29029210; conditions: lesinurad monotherapy

## CC(C)(Sc1ccncc1-c1ccc(C#N)c2ccccc12)C(=O)O [Verinurad]
[1]
  patients with serum creatinine elevated 1.5 times to baseline level: 17.1%

## O=C(O)CSc1nnc(Br)n1-c1ccc(C2CC2)c2ccccc12 [lesinurad]
patients
  patients with increased serum creatinine: About 24.30%
